In ChEMBL document CHEMBL1134484, “Homology modeling using multiple molecular dynamics simulations and docking studies of the human androgen receptor ligand binding domain bound to testosterone and nonsteroidal ligands” (J Med Chem, 2001):

What was measured:
[1] = target: T1, Androgen receptor (Homo sapiens, UniProt P10275); test: Binding affinity against human androgen receptor (hAR) in competitive binding assay; NB means No binding
T1 sequence (P10275 whole entry): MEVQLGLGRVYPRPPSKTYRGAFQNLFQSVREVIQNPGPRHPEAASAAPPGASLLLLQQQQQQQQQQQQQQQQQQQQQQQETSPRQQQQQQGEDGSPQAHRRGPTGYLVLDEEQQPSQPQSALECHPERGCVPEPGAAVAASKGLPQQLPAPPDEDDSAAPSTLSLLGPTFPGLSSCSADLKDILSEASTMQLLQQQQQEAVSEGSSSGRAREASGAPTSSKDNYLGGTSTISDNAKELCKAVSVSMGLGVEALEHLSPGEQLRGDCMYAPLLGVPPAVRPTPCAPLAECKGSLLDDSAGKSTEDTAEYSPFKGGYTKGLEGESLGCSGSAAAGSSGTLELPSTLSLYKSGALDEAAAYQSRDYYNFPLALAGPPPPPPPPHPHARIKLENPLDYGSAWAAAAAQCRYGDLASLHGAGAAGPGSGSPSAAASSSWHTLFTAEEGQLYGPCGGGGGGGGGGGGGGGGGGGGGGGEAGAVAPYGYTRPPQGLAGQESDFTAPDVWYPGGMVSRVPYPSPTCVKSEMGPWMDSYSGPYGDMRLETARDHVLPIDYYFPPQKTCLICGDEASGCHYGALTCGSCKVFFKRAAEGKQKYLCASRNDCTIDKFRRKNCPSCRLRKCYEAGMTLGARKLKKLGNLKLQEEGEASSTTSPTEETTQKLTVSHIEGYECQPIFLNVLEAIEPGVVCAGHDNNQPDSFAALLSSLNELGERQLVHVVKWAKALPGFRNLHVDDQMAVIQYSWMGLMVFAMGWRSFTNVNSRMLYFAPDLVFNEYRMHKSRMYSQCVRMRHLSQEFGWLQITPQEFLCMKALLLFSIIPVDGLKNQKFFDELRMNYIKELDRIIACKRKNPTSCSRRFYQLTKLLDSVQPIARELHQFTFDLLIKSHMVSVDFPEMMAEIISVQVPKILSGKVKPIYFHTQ

[2] = target: T1, Androgen receptor; test: Binding affinity against human androgen receptor (hAR) in competitive binding assay

Row | Ki [2] | Compound | Ki [1]
1 | – | C[C@@]1(C(=O)Nc2ccc([N+](=O)[O-])c(C(F)(F)F)c2)CO1 | Not Active
2 | 80.9 nM | C[C@](O)(CBr)C(=O)Nc1ccc(N)c(C(F)(F)F)c1 | –
